Assay results from patent publication US5690906A (The Trustees of the University of Pennsylvania, priority 1995, dated 1997).
Like-named read-outs stand apart in the source and are kept apart here.

Tests used:
D2 dopamine receptor = biological target: T1, D2 dopamine receptor (Rattus norvegicus, UniProt P61169); experiment: Inhibition of [^125 I]NCQ298 binding to D2 dopamine receptors expressed in Sf9 cells; details: for HC D2: Table 4, Hill coefficient
T1 construct: made in house; host or cells: Sf9 insect cells infected with recombinant baculovirus (AcMNPVrD2L or AcMNPVrD2S), membrane homogenates

D3 dopamine receptor = biological target: T2, D3 dopamine receptor (Rattus norvegicus, UniProt P19020); experiment: Inhibition of [^125 I]NCQ298 binding to D3 dopamine receptors expressed in Sf9 cells; details: for HC D3: Table 4, Hill coefficient; for Ratio D2/D3: Ki(D2)/Ki(D3)
T2 construct: made in house; host or cells: Sf9 insect cells infected with recombinant baculovirus AcMNPVrD3, membrane homogenates
Protocol: The construction of pVL1393-rD3 was previously described. […] An aliquot of membranes was used for radioligand binding.
Membranes from AcMNPV-rD3 infected Sf9 cells were prepared. […] Assays were incubated at 37° C. for 20 min. then filtered and washed as described above.

[1] = biological target: D3 receptors (expressed in Sf9 cells) (Rattus norvegicus, UniProt P19020); details: for Hill Co.: Table 3, [^125 I]trans-7-OH-PIPAT competition; for Hill Co. / Ki: 37° C., 120 mM NaCl; for affinity for the D3 receptor: competition with [^125 I]trans-7-OH-PIPAT; for Ki: ± SE, [^125 I]trans-7-OH-PIPAT 0.1-0.2 nM
Protocol: Plasmid DNA was isolated by alkaline dialysis and purified by CsCl density gradient centrifugation and overnight dialysis for transfection of Sf9 cells. […] A monolayer of Sf9 cells (approximately 2×10^6 cells/T25 plate) was cotransfected by calcium phosphate precipitation, with 1 mg of AcMNPV DNA (provided by Dr. Max Summers, Texas A&M University, College Station, Tex.) and 2 mg of recombinant transfer vector DNA. […] Putative recombinant viral plaques were chosen by visual screening for occlusion-negative plaques and used to infect 1×10^6 Sf9 cells in a 6-well plate (CoStar, Cambridge, Mass.). Four days after infection, cells were harvested and membranes were prepared. An aliquot of membranes was used for radioligand binding. […] The membrane homogenates of AcMNPVrD3 infected Sf9 cells were prepared as described. Briefly, the harvested cells were centrifuged, resuspended and homogenized in buffer containing 50 mM Tris, pH7.4, 150mM NaCl, 10 mM EDTA and a mixture of protease inhibitors (1 mg/ml aprotinin, 1 mg/ml leupeptin, 1 mg/ml soybean trypsin inhibitor, 10 mg/ml PMSF). The final pellets obtained were resuspended in the same buffer and kept at -20° C. for radioligand binding assays.
Binding assays were performed in glass tubes (12×75 mm) in a final volume of 0.2 ml. The buffer used for the dilution contained 50 mM Tris, pH 7.4, and the protease inhibitors mixture. […] The competition experiments were performed in the presence of 120 mM NaCl. […] After incubation for 30 min at 37° C. or 90 min at 25° C., the bound ligand was separated from the free ligand by filtration through glass fiber filters No. 25 (Schleicher & Schuell, Keene, N.H.) soaked with 0.2% protamine free base. The filters were then washed twice with 4 ml of ice-cold buffer (containing 50 mM Tris-HCl, pH 7.4) and the radioactivity on the filters was counted in a gamma counter (Packard 5000) with 70% efficiency.

[2] = In-vivo biodistribution in rats; set-up: species or system rat; Brain uptake: unit not given here; details: for Brain uptake: table; for tissue uptake at 2 min / tissue uptake at 1 h / tissue uptake at 0.5 h: rat
Protocol: In-vivo biodistribution studies were performed in rats^27 with the two hydroxylated radioligands: [^123 I]-7-OH-DPAT and [^123 I]-7-OH-PIPAT in rats. Concerning [^123 I]-7-OH-DPAT rats were killed either two minutes or thirty minutes post injection and the data are reported in Table 5. […] On the contrary, [^123 I]-7-OH-PIPAT presented a very high brain uptake: 11.812, 9,458 and 5.433% dose/gram of tissue at 2, 30 and 60 min. respectively (See Table 6). […] However, the brain regions, rich in D3 receptors such as Calleja island and olfactory tubercle need to be more deeply investigated.

[3] = Table 4 and its discussion, [^125 I]-NCQ298 0.05 nM, 37° C., 20 min, read-out: Ki D2
[4] = Table 4 and its discussion, [^125 I]-NCQ298 0.1 nM, 37° C., 20 min, read-out: Ki D3

T1 sequence (P61169 whole entry): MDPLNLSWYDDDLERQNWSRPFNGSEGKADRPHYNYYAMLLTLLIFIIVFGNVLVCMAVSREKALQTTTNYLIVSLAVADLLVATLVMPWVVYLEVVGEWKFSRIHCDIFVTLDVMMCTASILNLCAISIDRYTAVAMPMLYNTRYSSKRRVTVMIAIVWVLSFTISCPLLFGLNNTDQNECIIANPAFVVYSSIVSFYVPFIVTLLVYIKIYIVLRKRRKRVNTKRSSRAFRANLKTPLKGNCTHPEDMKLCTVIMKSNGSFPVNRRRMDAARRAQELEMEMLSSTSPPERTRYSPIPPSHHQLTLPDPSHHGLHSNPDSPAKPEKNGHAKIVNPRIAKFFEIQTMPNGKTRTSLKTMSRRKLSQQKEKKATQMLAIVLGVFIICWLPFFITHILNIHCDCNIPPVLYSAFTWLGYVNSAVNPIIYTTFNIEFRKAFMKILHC
T2 sequence (P19020 whole entry): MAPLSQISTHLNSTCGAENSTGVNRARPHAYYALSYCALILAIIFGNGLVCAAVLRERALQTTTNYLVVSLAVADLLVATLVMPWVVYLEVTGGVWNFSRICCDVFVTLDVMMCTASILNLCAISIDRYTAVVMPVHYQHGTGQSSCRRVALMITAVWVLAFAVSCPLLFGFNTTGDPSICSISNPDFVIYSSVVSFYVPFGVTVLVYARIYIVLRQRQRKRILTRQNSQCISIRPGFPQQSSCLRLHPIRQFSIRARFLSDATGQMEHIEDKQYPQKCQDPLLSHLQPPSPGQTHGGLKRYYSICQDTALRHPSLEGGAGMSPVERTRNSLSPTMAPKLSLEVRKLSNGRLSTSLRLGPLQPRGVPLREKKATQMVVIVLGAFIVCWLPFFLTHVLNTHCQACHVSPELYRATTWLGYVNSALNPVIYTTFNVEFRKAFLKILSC
Sequence of D3 receptors (expressed in Sf9 cells) (P19020 whole entry): as above

## CCCN(CCC)C1CCc2ccc(O)c(I)c2C1 (stereo not drawn) [8-I-7-OH-DPAT, 7Hydroxy-8-Iodo-2-N,N-n-Dipropylaminotetralin]
D2 dopamine receptor
  HC D2: 0.92
D2 dopamine receptor; [3]
  Ki: 353 ± 31 nM
D3 dopamine receptor
  Ki: 21.3 ± 2.9 nM
  HC D3: 0.85
D3 dopamine receptor; Table 4 and its discussion
  Ratio D2/D3: 16.6

## COC(=O)[C@@H]1[C@H]2C[C@H]3c4[nH]c5ccccc5c4CCN3C[C@@H]2CC[C@@H]1O [Yohimbine]
[1]
  Hill Co.: 0.97
  affinity for the D3 receptor: moderate to low affinity
  Ki: 2430 ± 146 nM

## NCCc1c[nH]c2ccc(O)cc12 [5-HT]
[1]
  Hill Co.: 0.90
  Ki: 2340 ± 420 nM

## CCCN(C/C=C/[123I])C1CCc2ccc(O)cc2C1 (stereo not drawn) [[^123 I]-7-OH-PIPAT]
[2]; 2 min
  Blood uptake: 2.621 ± 0.298
  Heart uptake: 1.780 ± 0.231
  Kidney uptake: 5.887 ± 1.088
  Liver uptake: 9.687 ± 3.302
  Lung uptake: 5.394 ± 0.589
  Muscle uptake: 33.199 ± 11.64
  Skin uptake: 8.816 ± 1.656
  Spleen uptake: 0.449 ± 0.161
  Thyroid uptake: 0.174 ± 0.012
  Brain uptake: 2.612 ± 0.498
[2]; 30 min
  Blood uptake: 0.785 ± 0.089
  Heart uptake: 0.203 ± 0.054
  Kidney uptake: 0.978 ± 0.276
  Liver uptake: 3.573 ± 0.569
  Lung uptake: 0.768 ± 0.146
  Muscle uptake: 23.546 ± 8.469
  Skin uptake: 6.962 ± 0.362
  Spleen uptake: 0.284 ± 0.011
  Thyroid uptake: 0.045 ± 0.007
  Brain uptake: 0.660 ± 0.096
[2]; 60 min
  Blood uptake: 0.742 ± 0.075
  Heart uptake: 0.100 ± 0.010
  Kidney uptake: 1.042 ± 0.114
  Liver uptake: 2.335 ± 1.391
  Lung uptake: 0.437 ± 0.038
  Muscle uptake: 12.882 ± 3.927
  Skin uptake: 6.148 ± 0.922
  Spleen uptake: 0.180 ± 0.023
  Thyroid uptake: 0.096 ± 0.067
  Brain uptake: 0.321 ± 0.037
[2]; brain, 2 min, read-out: brain uptake
  tissue uptake at 2 min: 11.8 %ID/g
[2]; brain, 60 min, read-out: brain uptake
  tissue uptake at 1 h: 5.43 %ID/g
[2]; cerebellum, 2 min, read-out: Regional uptake, Cerebellum
  tissue uptake at 2 min: 1.61 ± 0.403 %ID/g
[2]; cerebellum, 30 min, read-out: Regional uptake, Cerebellum
  tissue uptake at 0.5 h: 0.379 ± 0.009 %ID/g
[2]; cerebellum, 60 min, read-out: Regional uptake, Cerebellum
  tissue uptake at 1 h: 0.215 ± 0.025 %ID/g
[2]; cortex, 2 min, read-out: Regional uptake, Cortex
  tissue uptake at 2 min: 2 ± 0.038 %ID/g
[2]; cortex, 30 min, read-out: Regional uptake, Cortex
  tissue uptake at 0.5 h: 0.265 ± 0.086 %ID/g
[2]; cortex, 60 min, read-out: Regional uptake, Cortex
  tissue uptake at 1 h: 0.206 ± 0.022 %ID/g
[2]; hippocampus, 2 min, read-out: Regional uptake, Hippocampus
  tissue uptake at 2 min: 1.63 ± 0.222 %ID/g
[2]; hippocampus, 30 min, read-out: Regional uptake, Hippocampus
  tissue uptake at 0.5 h: 0.261 ± 0.064 %ID/g
[2]; hippocampus, 60 min, read-out: Regional uptake, Hippocampus
  tissue uptake at 1 h: 0.216 ± 0.02 %ID/g
[2]; hypothalamus, 2 min, read-out: Regional uptake, Hypothalamus
  tissue uptake at 2 min: 1.83 ± 0.233 %ID/g
[2]; hypothalamus, 30 min, read-out: Regional uptake, Hypothalamus
  tissue uptake at 0.5 h: 0.251 ± 0.009 %ID/g
[2]; hypothalamus, 60 min, read-out: Regional uptake, Hypothalamus
  tissue uptake at 1 h: 0.254 ± 0.033 %ID/g
[2]; rem, 2 min, read-out: Regional uptake, REM
  tissue uptake at 2 min: 1.67 ± 0.224 %ID/g
[2]; rem, 30 min, read-out: Regional uptake, REM
  tissue uptake at 0.5 h: 0.281 ± 0.076 %ID/g
[2]; rem, 60 min, read-out: Regional uptake, REM
  tissue uptake at 1 h: 0.218 ± 0.025 %ID/g
[2]; striatum, 2 min, read-out: Regional uptake, Striatum
  tissue uptake at 2 min: 1.62 ± 0.236 %ID/g
[2]; striatum, 30 min, read-out: Regional uptake, Striatum
  tissue uptake at 0.5 h: 0.263 ± 0.08 %ID/g
[2]; striatum, 60 min, read-out: Regional uptake, Striatum
  tissue uptake at 1 h: 0.212 ± 0.029 %ID/g
[2]; rats, brain
  regional uptake in the different area of the brain: no regional uptake was observed

## CCCN(CCC)C1CCc2cccc(O)c2C1 (racemic) [8-OH-DPAT, 8-hydroxy-2-(di-n-propylamino)tetralin]
[1]
  Hill Co.: 0.78

## CCCNC1CCc2ccc(OC)cc2C1 (stereo not drawn) [7-MeO-MPAT, 7Methoxy-2-N-n-Propylaminotetralin]
D2 dopamine receptor
  Ki: 5176 ± 0.96 nM
  HC D2: 0.96
D3 dopamine receptor
  Ki: 1310 ± 249 nM
  HC D3: 0.97
D3 dopamine receptor; Table 4 and its discussion
  Ratio D2/D3: 4.0

## Oc1ccc2c(c1)CC(NCc1ccccc1)CC2 (stereo not drawn) [7-OH-BAT, 7Hydroxy-2-N-n-Benzylaminotetralin]
D2 dopamine receptor
  HC D2: 0.80
D2 dopamine receptor; [3]
  Ki: 1860 ± 261 nM
D3 dopamine receptor
  affinity / selectivity for the D3 receptor: lowest affinity for the D3 receptor
  HC D3: 1.00
D3 dopamine receptor; Table 4 and its discussion
  Ratio D2/D3: 4.8
D3 dopamine receptor; [4]
  Ki: 391 ± 47 nM

## CCCNC1CCc2ccc(O)cc2C1 (stereo not drawn) [7-OH-MPAT, 7Hydroxy-2-N-n-Propylaminotetralin]
D2 dopamine receptor
  HC D2: 0.80
D2 dopamine receptor; [3]
  Ki: 620 ± 124 nM
D3 dopamine receptor
  Ki: 3.25 ± 0.45 nM
  affinity / selectivity for the D3 receptor: comparative affinity as 7-OH-DPAT for D3 receptors
  HC D3: 0.80
D3 dopamine receptor; Table 4 and its discussion
  Ratio D2/D3: 191

## C#CCN(CCC)C1CCc2ccc(O)cc2C1 (stereo not drawn) [7-OH-PPAT, 7Hydroxy-2-(-Propargyl-N-n-Propyl)-Aminotetralin]
D2 dopamine receptor
  affinity for the D2 receptor: three-fold less active than 7-OH-DPAT
  HC D2: 0.99
D2 dopamine receptor; [3]
  Ki: 378 ± 45 nM
D3 dopamine receptor
  Ki: 9.2 ± 0.6 nM
  affinity / selectivity for the D3 receptor: three-fold less active than 7-OH-DPAT
  HC D3: 0.80
D3 dopamine receptor; Table 4 and its discussion
  Ratio D2/D3: 41.1

## COc1ccc2c(c1)CC(NCc1ccccc1)CC2 (stereo not drawn) [7-MeO-BAT, 7Methoxy-2-N-Benzylaminotetralin]
D2 dopamine receptor
  HC D2: 0.78
D2 dopamine receptor; [3]
  Ki: 5880 ± 471 nM
D3 dopamine receptor
  HC D3: 0.80
D3 dopamine receptor; Table 4 and its discussion
  Ratio D2/D3: 3.1
D3 dopamine receptor; [4]
  Ki: 1870 ± 224 nM

## CCCN(CCC)C1CCc2ccc(OC)cc2C1 (stereo not drawn) [7-MeO-DPAT, 7Methoxy-2-N,N-n-Dipropylaminotetralin]
D2 dopamine receptor
  Ki: 2170 ± 216 nM
  HC D2: 0.95
D3 dopamine receptor
  Ki: 280 ± 36 nM
  HC D3: 0.98
D3 dopamine receptor; Table 4 and its discussion
  Ratio D2/D3: 7.7

## CCN1CCC[C@H]1CNC(=O)c1c(O)c(Cl)cc(Cl)c1OC [Raclopride]
[1]
  Hill Co.: 0.78
  Ki: 9.25 ± 2.3 nM

## CCCN(C/C=C/I)C1CCc2ccc(O)cc2C1 (stereo not drawn) [trans-7-OH-PIPAT]
D2 dopamine receptor; Table 2, ± SE, [^125 I]NCQ298, Sf9 cells, read-out: Ki D2
  Ki: 265 ± 36 nM
D2 dopamine receptor
  HC D2: 0.96
D2 dopamine receptor; [3]
  Ki: 265 ± 48 nM

## CN1CCc2cc(Cl)c(O)cc2[C@@H](c2ccccc2)C1 [SCH23390]
[1]
  Hill Co.: 0.80
  affinity for the D3 receptor: moderate to low affinity

## CCCN(C/C=C/I)C1CCc2ccc(OC)cc2C1 (stereo not drawn) [7-MeO-PIPAT, 7Methoxy-2-[N-3'-(1'-Iodo-1'E-Propenyl)-N-n-Propylamino]tetralin]
D2 dopamine receptor
  HC D2: 1.22
D2 dopamine receptor; [3]
  Ki: 1380 ± 193 nM
D3 dopamine receptor
  HC D3: 0.93
D3 dopamine receptor; Table 4 and its discussion
  Ratio D2/D3: 5.4
D3 dopamine receptor; [4]
  Ki: 257 ± 31 nM

## CCCN(CCC)C1CCc2ccc(O)c([123I])c2C1 (stereo not drawn) [[^123 I]-7-OH-DPAT, reference compound]
[2]; 2 min
  Brain uptake: 1.55 ± 0.21
[2]; 30 min
  Brain uptake: 0.54 ± 0.13
[2]; in vivo, 2 min, read-out: Regional uptake, Cerebellum
  tissue uptake at 2 min: 0.81 ± 0.14 %ID/g
[2]; in vivo, 2 min, read-out: Regional uptake, Cortex
  tissue uptake at 2 min: 1.1 ± 0.12 %ID/g
[2]; in vivo, 2 min, read-out: Regional uptake, Hippocampus
  tissue uptake at 2 min: 0.78 ± 0.09 %ID/g
[2]; in vivo, 2 min, read-out: Regional uptake, Striatum
  tissue uptake at 2 min: 0.85 ± 0.07 %ID/g
[2]; in vivo, 30 min, read-out: Regional uptake, Cerebellum
  tissue uptake at 0.5 h: 0.25 ± 0.09 %ID/g
[2]; in vivo, 30 min, read-out: Regional uptake, Cortex
  tissue uptake at 0.5 h: 0.29 ± 0.12 %ID/g
[2]; in vivo, 30 min, read-out: Regional uptake, Hippocampus
  tissue uptake at 0.5 h: 0.31 ± 0.07 %ID/g
[2]; in vivo, 30 min, read-out: Regional uptake, Striatum
  tissue uptake at 0.5 h: 0.31 ± 0.08 %ID/g
[2]; rats, brain
  brain washout: rapidly washed out of the brain
  regional uptake in the different area of the brain: no regional uptake was observed
